According to patent publication US20170027902A1, “Use of a Composition Comprising a Flavonol, A Flavonoid, and a Fatty Acid in the Treatment of Oxidative Injuries Due to Mitochondrial Dysfunction” (priority 2014, published 2017):

System: primary mouse cortical cultures
Assay: Confocal imaging of calcium transients and mitochondrial membrane potential
Format: cell-based
Experimental: Embryonic day 16 timed pregnant CD1 out-bred mice were obtained from Charles River Laboratories (Charles River; QC, Canada). Primary cortical neuron cultures were prepared from cerebral cortices of wild type (WT) CD1 mouse embryos as described previously, with the following modifications. Pregnant CD1 females were heavily anaesthetized with isoflurane vapor (Benson Medical Industries, Inc., Markham, ON) before being euthanized by decapitation. The embryonic day 16 (E16) fetuses were immediately removed from the sacrificed pregnant females by cesarean section and placed in ice-cold Hank's Balanced Salt Solution (HBSS) (GIBCO; Invitrogen, Amarillo, Calif.). The meninges were removed from the brains and cortices were isolated under a dissecting microscope. The cortices from each embryo were placed in individual wells of a 24-well plate (Corning; Lowell, Mass.), containing 1 ml of ice-cold PBS (GIBCO; […] Under sterile conditions, the tissue was briefly minced, transferred to 15 ml sterile conical tubes (Corning; Lowell, Mass.) and centrifuged at 350×g for 3 min at room temperature. The dissecting solution was discarded and the cortical neurons were then dissociated trituration with fire-polished glass pipettes followed by incubating in 1 ml of 0.1% trypsin solution (0.1% w/v trypsin (Invitrogen, Amarillo, Calif.) in PBS with 1 mM Mg^2+ and 13 mM glucose) at 37° C. for 15 min. The trypsinization was inhibited by the addition of 0.5 ml of trypsin inhibitor solution that also contained DNase I (0.06% w/v trypsin inhibitor (Invitrogen; Amarillo, Calif.) and 0.01% DNase I (Invitrogen; […] The tubes were mixed briefly and the cells were centrifuged at 350×g for 3 min at room temperature. The trypsin and inhibitor solutions were discarded and each cell pellet was suspended in 1 ml of cortical neuron plating medium (Neurobasal medium (Invitrogen, Amarillo, Calif.) with 10% fetal bovine serum (GIBCO; Invitrogen; Amarillo, Calif.), 2% B27 supplement, 1 mM L-glutamine, and 1% Gentamycin (Invitrogen; […] Cortical neurons were plated in 96-well plates (Corning; Lowell, Mass.) that were pre-coated with poly-D-lysine (PDL; Sigma-Aldrich; Oakville, ON) according to the procedure described by the manufacturer. Briefly, plates were coated immediately before use with 100 μg/ml PDL for 5-10 min (50 μl/well), washed three times with tissue-culture grade water and left to dry for 2 h before cells were introduced. Cortical neurons were plated at a concentration of 1×10^6 cells/ml (100 µl/well) and medium was completely changed the day after plating to serum-free cortical neuron medium (Neurobasal medium with 2% B27 supplement, 5 mM HEPES, 0.5 mM L-glutamine, and 20 μg/ml Gentamycin), which was replaced every 3 days in culture. Cultures were maintained in a humidified, 37° C. incubator with 5% CO2. Experiments were performed on the eighth day in vitro (DIV10). For measurements of mitochondrial membrane potential (ΔΨm), cells were loaded with 25 nM tetrannethylrhodamine methyl ester (TMRM) for 30 min at room temperature and the dye was present during the experiment. TMRM is used in the redistribution mode to assess ΔΨm with a reduction in TMRM fluorescence indicating mitochondrial depolarization. Neurons were loaded for 30 min at room temperature with X-rhod-1 AM (0.5 μM) and Fluo-3 AM (0.5 μM) (Molecular Probes, Invitrogen) prior to imaging in HEPES-buffered salt solution (HBSS) composed of (mM): 156 NaCl, 3 KCl, 2 MgSO4, 1.25 KH2PO4, 2 CaCl2, 10 glucose and 10 HEPES, pH adjusted to 7.35 with NaOH. Confocal images were obtained using a 510 CLSM (Zeiss, Thornwood, N.Y.) equipped with a META detection system and a […] oil-immersion objective. The 488 nm Argon laser line was used to excite fluo-3 fluorescence, which was measured using a bandpass filter from 505 to 550 nm. Illumination intensity was kept to a minimum (at 0.1-0.2% of laser output) to avoid phototoxicity and the pinhole was set to give an optical slice of 2 μm. […]

SMILES | [Ca2+]c oscillations stimulated by Q (5 μM, depletion of ER Ca2+ stores) | TMRM fluorescence (added after Q and thapsigargin) | [Ca2+]c (added after Q and thapsigargin)
C/C=C(/C)C(=O)O[C@H]1C(C)=C2[C@H]([C@@H]1OC(=O)CCCCCCC)[C@@](C)(OC(C)=O)C[C@H](OC(=O)CCC)[C@@]1(O)[C@H]2OC(=O)[C@@]1(C)O [thapsigargin] | blocked |  | 
N#CC(C#N)=NNc1ccc(OC(F)(F)F)cc1 [FCCP, carbonyl cyanide-4-(trifluoromethoxy)phenylhydrazone] |  | complete loss | sharp increase
